# Assay results reported in patent publication US9662372B2 (priority 2013, dated 2017).
# Test system: C. difficile ATCC 9689
# Test: not given
# Assay type: cell-based, Clostridium difficile
# Conditions: not given
Molecule,Toxin [ng/mL],"Toxin induction (rank, in words)",Average dye reduction rate of CHO-k1 in the presence of C. difficile supernatant,Corrected dye reduction rate
"2,3-Butanone",<0.122,,,
"CC(O)C(N)=O (racemic) [D,L-Lactamide]",2859,,,
"NC(=O)CCCCC1CCSS1 (racemic) [D,L-Lipoamide]",<0.122,,,
NCCO [2-Aminoethanol],173,,,
Nc1ncnc2nc[nH]c12 [Adenine],,strongest toxin inducer,,
"Nc1ccn([C@@H]2O[C@@H]3COP(=O)(O)O[C@H]3[C@H]2O)c(=O)n1 [Cytidine 3′,5′-Cyclic Monophosphate]",321,,,
O=C[C@H](O)[C@@H](O)[C@H](O)[C@H](O)CO [D-glucose],,,57.19,54.6
NO [Hydroxylamine],334,,,
CS(=O)(=O)CC[C@H](N)C(=O)O [L-Methionine Sulfone],<0.122,,,
O=C(O)[C@@H]1CCCN1 [L-Proline],,highest toxin inducer in the amino acid category,,

# Test system: C. difficile ATCC 9689
# Test: Bacterial mass in wells of PM panels (OD 750 nm)
# Assay type: cell-based, Clostridium difficile
# Conditions: OD difference with vs without C. difficile, 72 h; carbon source (PM01/PM02)
row,Molecule,C. difficile Mass
1,"2,3-Butanone",0.0572 OD (750 nm)
2,NCCO [2-Aminoethanol],0.0853 OD (750 nm)
3,OC[C@H]1O[C@@H](Oc2ccc(O)cc2)[C@H](O)[C@@H](O)[C@@H]1O [Arbutin],0.128 OD (750 nm)
4,O=C(O)CC(Br)C(=O)O (stereo not shown) [Bromosuccinic Acid],0.0335 OD (750 nm)
5,CCCCCCCCCC(=O)O [Capric acid],0.014 OD (750 nm)
6,CCCCCC(=O)O [Caproic acid],0.0568 OD (750 nm)
7,C[C@@H](N)C(=O)O [D-Alanine],0.1233 OD (750 nm)
8,N[C@H](CC(=O)O)C(=O)O [D-Aspartic acid],0.0269 OD (750 nm)
9,O=C(CO)[C@@H](O)[C@H](O)[C@H](O)CO [D-Fructose],0.1435 OD (750 nm)
10,O=C[C@@H](O)[C@@H](O)[C@H](O)CO [D-Lyxose],0.1508 OD (750 nm)
11,N[C@H](CO)C(=O)O [D-Serine],0.1114 OD (750 nm)
12,O=C(CO)[C@@H](O)[C@@H](O)[C@H](O)CO [D-Tagatose],0.138 OD (750 nm)
13,C[C@H](O)[C@@H](N)C(=O)O [D-Threonine],0.0923 OD (750 nm)
14,O=C(O)/C=C/C(=O)O [Fumaric Acid],0.018 OD (750 nm)
15,C[C@H](N)C(=O)O [L-Alanine],0.113 OD (750 nm)
16,N[C@@H](CCO)C(=O)O [L-Homoserine],0.0071 OD (750 nm)
17,CC(C)C[C@H](N)C(=O)O [L-Leucine],0.089 OD (750 nm)
18,CSCC[C@H](N)C(=O)O [L-Methionine],0.0818 OD (750 nm)
19,N[C@@H](Cc1ccccc1)C(=O)O [L-Phenylalanine],0.0714 OD (750 nm)
20,N[C@@H](CO)C(=O)O [L-Serine],0.0635 OD (750 nm)
21,C[C@@H](O)[C@H](N)C(=O)O [L-Threonine],0.0643 OD (750 nm)
22,CC(C)[C@H](N)C(=O)O [L-Valine],0.0917 OD (750 nm)
23,CC(=O)N[C@H]1C(O)O[C@H](CO)[C@@H](O)[C@@H]1O (stereo partly drawn) [N-Acetyl-D-Glucosamine],0.0955 OD (750 nm)
24,CC(=O)N[C@H]1[C@H]([C@H](O)[C@H](O)CO)OC(O)(C(=O)O)C[C@@H]1O (stereo partly shown) [N-Acetyl-Neuraminic acid],0.1163 OD (750 nm)
25,CC(=O)C(=O)O [Pyruvic Acid],0.093 OD (750 nm)
26,OCc1ccccc1O[C@@H]1O[C@H](CO)[C@@H](O)[C@H](O)[C@H]1O [Salicin],0.1291 OD (750 nm)
27,NCCc1ccccc1 [β-Phenylethylamine],0.0477 OD (750 nm)
28,Dextrin,0.0478 OD (750 nm)

# Same assay, conditions: OD difference with vs without C. difficile, 72 h; nitrogen source (PM03/06/07/08)
row,Molecule,C. difficile Mass
1,"CC(O)C(N)=O (racemic) [D,L-Lactamide]",0.04 OD (750 nm)
2,"CCCCCCC(N)C(=O)O (racemic) [D,L-α-Amino-Caprylic acid]",0.0484 OD (750 nm)
3,CC(N)=O [Acetamide],0.0458 OD (750 nm)
4,Nc1ncnc2nc[nH]c12 [Adenine],0.031 OD (750 nm)
5,Nc1ncnc2c1ncn2[C@@H]1O[C@H](CO)[C@@H](O)[C@H]1O [Adenosine],0.0472 OD (750 nm)
6,N=C(N)NCCCCN [Agmatine],0.043 OD (750 nm)
7,NC(=O)NC1NC(=O)NC1=O (stereo not shown) [Allantoin],0.0425 OD (750 nm)
8,NC(=O)NC(N)=O [Biuret],0.0394 OD (750 nm)
9,Nc1ccn([C@@H]2O[C@H](CO)[C@@H](O)[C@H]2O)c(=O)n1 [Cytidine],0.0456 OD (750 nm)
10,Nc1cc[nH]c(=O)n1 [Cytosine],0.0361 OD (750 nm)
11,C[C@@H](N)C(=O)O [D-Alanine],0.038 OD (750 nm)
12,NC(=O)C[C@@H](N)C(=O)O [D-Asparagine],0.0321 OD (750 nm)
13,N[C@H](CC(=O)O)C(=O)O [D-Aspartic acid],0.0109 OD (750 nm)
14,N[C@H]1C(O)O[C@H](CO)[C@H](O)[C@@H]1O (stereo partly drawn) [D-Galactosamine],0.0374 OD (750 nm)
15,N[C@H]1C(O)O[C@H](CO)[C@@H](O)[C@@H]1O (stereo partly drawn) [D-Glucosamine],0.0447 OD (750 nm)
16,NCCCC[C@@H](N)C(=O)O [D-Lysine],0.0489 OD (750 nm)
17,N[C@@H]1C(O)O[C@H](CO)[C@@H](O)[C@@H]1O (stereo partly drawn) [D-Mannosamine],0.0364 OD (750 nm)
18,N[C@H](CO)C(=O)O [D-Serine],0.0465 OD (750 nm)
19,CCN [Ethylamine],0.0401 OD (750 nm)
20,NCCN [Ethylenediamine],0.0369 OD (750 nm)
21,NC=O [Formamide],0.0418 OD (750 nm)
22,NC(=O)[C@@H](O)[C@@H](O)[C@H](O)[C@@H](O)C=O [Glucuronamide],0.0369 OD (750 nm)
23,Nc1nc2c(ncn2[C@@H]2O[C@H](CO)[C@@H](O)[C@H]2O)c(=O)[nH]1 [Guanosine],0.0092 OD (750 nm)
24,NCCc1c[nH]cn1 [Histamine],0.0424 OD (750 nm)
25,NO [Hydroxylamine],0.0228 OD (750 nm)
26,N=C(N)NCCC[C@H](N)C(=O)O [L-Arginine],0.046 OD (750 nm)

row,Molecule,C. difficile Mass
1,NC(=O)NCCC[C@H](N)C(=O)O [L-Citrulline],0.0377 OD (750 nm)
2,N[C@@H](CS)C(=O)O [L-Cysteine],0.0394 OD (750 nm)
3,NC(=O)CC[C@H](N)C(=O)O [L-Glutamine],0.0339 OD (750 nm)
4,N[C@@H](Cc1c[nH]cn1)C(=O)O [L-Histidine],0.0361 OD (750 nm)
5,N[C@@H](CCO)C(=O)O [L-Homoserine],0.0293 OD (750 nm)
6,CC[C@H](C)[C@H](N)C(=O)O [L-Isoleucine],0.0563 OD (750 nm)
7,NCCCC[C@H](N)C(=O)O [L-Lysine],0.0436 OD (750 nm)
8,NCCC[C@H](N)C(=O)O [L-Ornithine],0.0369 OD (750 nm)
9,O=C(O)[C@@H]1CCCN1 [L-Proline],0.0394 OD (750 nm)
10,N[C@@H](Cc1c[nH]c2ccccc12)C(=O)O [L-Tryptophan],0.0299 OD (750 nm)
11,N[C@@H](Cc1ccc(O)cc1)C(=O)O [L-Tyrosine],0.1528 OD (750 nm)
12,CC(C)[C@H](N)C(=O)O [L-Valine],0.0431 OD (750 nm)
13,CN [Methylamine],0.0398 OD (750 nm)
14,CC(=O)N[C@H]1C(O)O[C@H](CO)[C@H](O)[C@@H]1O (stereo partly drawn) [N-Acetyl-D-Galactosamine],0.0355 OD (750 nm)
15,CCCCCN [N-Amylamine],0.0433 OD (750 nm)
16,NCCCCN [Putrescine],0.0339 OD (750 nm)
17,Cc1cn([C@H]2C[C@H](O)[C@@H](CO)O2)c(=O)[nH]c1=O [Thymidine],0.0384 OD (750 nm)
18,Cc1c[nH]c(=O)[nH]c1=O [Thymine],0.0338 OD (750 nm)
19,NCCc1ccc(O)cc1 [Tyramine],0.0442 OD (750 nm)
20,O=c1cc[nH]c(=O)[nH]1 [Uracil],0.0375 OD (750 nm)
21,O=c1[nH]c(=O)c2[nH]c(=O)[nH]c2[nH]1 [Uric acid],0.0556 OD (750 nm)
22,O=c1ccn([C@@H]2O[C@H](CO)[C@@H](O)[C@H]2O)c(=O)[nH]1 [Uridine],0.0373 OD (750 nm)
23,O=c1[nH]c(=O)c2[nH]cnc2[nH]1 [Xanthine],0.2978 OD (750 nm)
24,O=c1[nH]c(=O)c2ncn([C@@H]3O[C@H](CO)[C@@H](O)[C@H]3O)c2[nH]1 [Xanthosine],0.0516 OD (750 nm)
25,NCCc1ccccc1 [β-Phenylethylamine],0.0448 OD (750 nm)
26,NCCCC(=O)O [γ-Aminobutyric acid],0.0375 OD (750 nm)

# Same assay, conditions: OD difference with vs without C. difficile, 72 h; nutritional stimulant panel PM05
row,Molecule,C. difficile Mass
1,Nc1ncnc2c1ncn2[C@@H]1O[C@H](CO)[C@@H](O)[C@H]1O [Adenosine],0.0414 OD (750 nm)

# Same assay, conditions: OD difference with vs without C. difficile, 72 h; phosphorus/sulfur source panel PM04
row,Molecule,C. difficile Mass
1,"NC(=O)CCCCC1CCSS1 (racemic) [D,L-Lipoamide]",0.0265 OD (750 nm)
2,O=S(=O)(O)CCO [2-Hydroxyethane Sulfonic acid],0.0428 OD (750 nm)
3,Nc1ncnc2c1ncn2[C@@H]1O[C@H](COP(=O)(O)O)[C@@H](O)[C@H]1O [Adenosine 5′-Monophosphate],0.0495 OD (750 nm)
4,CCCCS(=O)(=O)O [Butane Sulfonic acid],0.0398 OD (750 nm)
5,"Nc1ccn([C@@H]2O[C@@H]3COP(=O)(O)O[C@H]3[C@H]2O)c(=O)n1 [Cytidine 3′,5′-Cyclic Monophosphate]",0.0106 OD (750 nm)
6,NCCS(=O)O [Hypotaurine],0.0438 OD (750 nm)
7,CS(=O)(=O)CC[C@H](N)C(=O)O [L-Methionine Sulfone],0.0446 OD (750 nm)
8,NCCS(=O)(=O)O [Taurine],0.0505 OD (750 nm)
9,C[C@H](CCC(=O)NCCS(=O)(=O)O)[C@H]1CC[C@H]2[C@@H]3[C@H](O)C[C@@H]4C[C@H](O)CC[C@]4(C)[C@H]3C[C@H](O)[C@]12C [Taurocholic acid],0.0536 OD (750 nm)
10,O=S1(=O)CCCC1 [Tetramethylene Sulfone],0.0442 OD (750 nm)
11,Nc1ccc(S(=O)(=O)O)cc1 [p-Aminobenzene Sulfonic acid],0.0485 OD (750 nm)
